In patent US9120820B2, “Fluorescent molecular probes for use in assays that measure test compound competitive binding with SAM-utilizing proteins” (CAYMAN CHEMICAL COMPANY, INCORPORATED, priority 2011, dated 2015):
One block for each compound: values may come before it.

Experiments:
SET7/9 [1] = molecular target: T1, SET7/9 (Homo sapiens, UniProt Q8WTS6); assay: Sinefungin Probe 1A competition FP assay with SET7/9; format: binding; settings: for IC50: read-out: IC50 for displacement of Sinefungin Probe 1A
T1 construct: purchased Cayman 10320
T1 sequence (Q8WTS6 1-366): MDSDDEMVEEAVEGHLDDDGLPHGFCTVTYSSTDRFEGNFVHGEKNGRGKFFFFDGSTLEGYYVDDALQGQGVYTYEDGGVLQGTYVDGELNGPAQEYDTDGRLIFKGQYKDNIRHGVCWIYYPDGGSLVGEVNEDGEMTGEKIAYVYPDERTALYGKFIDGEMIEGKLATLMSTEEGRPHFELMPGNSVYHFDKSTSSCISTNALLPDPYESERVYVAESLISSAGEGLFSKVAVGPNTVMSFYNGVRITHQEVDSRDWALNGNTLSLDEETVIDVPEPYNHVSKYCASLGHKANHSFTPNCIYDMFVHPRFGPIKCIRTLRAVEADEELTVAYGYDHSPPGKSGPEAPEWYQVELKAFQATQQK
Method: Methods: Carboxymethyl cellulose-purified SAM, SAH (Cayman Catalog #700145), and sinefungin were diluted in a semi-Log manner in FP buffer (Cayman Catalog #600028). Five microliters of these dilutions were added to the wells of a low-volume, black, 384-well plate (Nunc #264705). […] The assay was allowed to equilibrate at room temperature for 30 minutes in the dark. Fluorescence polarization was measured as above. The experiment was performed two independent times, each in duplicate.

SET7/9 [2] = molecular target: T1, SET7/9; assay: SET7/9 SAM-Screener high-throughput FP assay, Sinefungin Probe 1A displacement; format: binding; settings: SET7/9; sinefungin 50 μM; SAM
Method: Methods: A collection of 14,400 compounds from the Maybridge HitFinder collection of compounds was assayed for the displacement of Sinefungin Probe 1A from SET7/9 in a high-throughput manner using the SET7/9 SAM-Screener FP assay Cayman Catalog Item #600490). Thirty microliters of assay buffer (50 mM Tris pH 8.0, 50 mM KCl, 5 mM CHAPS, 2 mM DTT) was added to every well of a black 384-well polystyrene microtiter plate (Thermo-Fisher 364576). To every well, excluding control wells, was added one microliter of a DMSO solution containing a test compound. Control wells received either 1 μl DMSO or 1 μl of a sinefungin solution. The final concentration of sinefungin control or test compounds in the assay was 50 μM or 10 μM, respectively. To every well of the plate was added 10 μl of a SET7/9 solution to give a final assay concentration of 30 nM. After a 15-minute incubation at ambient temperature, 10 μl of Sinefungin Probe 1A solution was added to every well to give a final assay concentration of 10 nM in a total assay volume of 50 μl Samples were analyzed using a Biotek Synergy H4 plate reader in fluorescence polarization mode after a 30-minute incubation at ambient temperature in the dark. Data were analyzed using GeneData (v. 9.01). […]

SET7/9 [3] = molecular target: T1, SET7/9; assay: Fluorescence polarization saturation binding of fluorescent probe to SET7/9; settings: FIG. 11A, FIG. 12
Method: Methods: The experiment was performed once, with two replicate wells for all methyltransferases per condition. The sole exception to this is NSD2 (see details below). The assay was performed in a ½ area, black, 96-well plate (Corning #3686) in a final volume of 30 μL. Methyltransferases (Table 1) were serially diluted two-fold in FP buffer (Cayman Catalog #600028) and 15 μL of a given dilution were added per well to the assay plate. Fifteen microliters of sinefungin probe 1A (10 nM) were added to each well, giving a final sinefungin probe 1A concentration of 5 nM. This concentration of sinefungin probe 1A was chosen because it had at least a 10-fold increase in fluorescence (excitation max 575 nm/emission max 615 nm) over background (buffer). The mixture was incubated in the dark at room temperature for 30 minutes and its fluorescence polarization was read using a BioTek Synergy 4.

SET7/9 [4] = molecular target: T1, SET7/9; assay: Sinefungin Probe 1B displacement FP assay with SET7/9 (Epigenetics Screening Library profiling); format: binding; settings: SET7/9, FIG. 11B
Method: Profiling of a pre-production version of the Cayman Chemical Epigenetics Screening Library (Cayman Catalog Item #11076) against SET7/9 and GLP was performed in a similar manner using Sinefungin Probe 1B. For GLP, the enzyme concentration was raised to 500 nM to produce a robust signal:noise ratio. Data were analyzed in GraphPad Prism (v. 5.04) and/or GeneData (v. 9.01).
An analog of Sinefungin Probe 1A, Sinefungin Probe 1B, wherein the hexyl portion of the linker moiety is replaced with PEG3 and the Cal Fluor® Red 610 fluorophore moiety is replaced with the “Fluor585” (Texas Red)-derived fluorophore moiety, was tested for the ability to bind several methyltransferases, including SET7/9. […] Similar data have been observed for GLP and G9a.

[5] = 30 nM SET7/9, 10 nM Sinefungin Probe 1A, FIG. 3

SMILES: Nc1ncnc2c1ncn2[C@@H]1O[C@H](CSCC[C@H](N)C(=O)O)[C@@H](O)[C@H]1O [SAH, S-adenosylhomocysteine]
competition with probe binding (SET7/9 [1]; [5]): did not compete with probe binding at concentrations below 1 μM

IC50 (SET7/9 [1]; [5]): 130 nM
inhibition of probe binding (controls) (SET7/9 [2]): fully inhibits probe binding
SMILES: C[S+](CC[C@H](N)C(=O)O)C[C@H]1O[C@@H](n2cnc3c(N)ncnc32)[C@H](O)[C@@H]1O (stereo partly shown) [SAM, S-Adenosylmethionine, reference compound]

affinity for SET7/9 compared with the other sinefungin probes (SET7/9 [3]): essentially identical affinities
SMILES: Nc1ncnc2c1ncn2[C@@H]1O[C@H](C[C@@H](N)CC[C@H](N)C(=O)O)[C@@H](OCc2cnnn2CCCCCCNC(=O)OC2CCN(C(=O)c3ccccc3C3=c4cc5c6c(c4Oc4c3cc3c7c4CCCN7CCC3)CCC[N+]=6CCC5)CC2)[C@H]1O [Sinefungin Probe 1B]

SMILES: Nc1ncnc2c1ncn2[C@@H]1O[C@H](C[C@@H](N)CC[C@H](N)C(=O)O)[C@@H](O)[C@H]1O [sinefungin, Sinefungin]
IC50 (SET7/9 [1]; [5]): 220 nM
Ki (SET7/9 [1]; SET7/9, read-out: Ki for displacement of Sinefungin Probe 1A): 168 nM
Ki (SET7/9 [4]): 120 nM
